Results on six compounds are retold here after patent US20260364184A1, “COMPOUND BASED ON OXOISOINDOLINYL-SUBSTITUTED TETRAHYDROPYRIMIDINE-DIONE AND USE THEREOF” (GLUETACS THERAPEUTICS (SHANGHAI) CO., LTD., priority 2023, published 2026).

Type in all cases: cell-based
Experiment [1] deals with T1, ALK (Homo sapiens, UniProt Q9UM73).
T1 construct: known EML4-ALK variant 3 fusion, ALK kinase part unmutated), Western blot
The experiment in a line: Western blot degradation of ALK. Conditions: H2228 Cell; 24 hours. The method, then: (§1) Conventional Western blot assay was performed to evaluate the effects of the compounds of the present disclosure on the expression of target proteins in cells.
(§2) (1) Cell Seeding and Protein Harvesting: The selected cells were processed according to the cell seeding procedure and protein harvesting procedure in Table II-2.
(§3) (2) To the collected supernatant, 5×SDS sample loading buffer was added, followed by denaturation at 95 °C for 5 minutes. The denatured samples were then separated by SDS-PAGE electrophoresis on a polyacrylamide gel. Proteins were transferred to a nitrocellulose membrane (0.45 μm NC membrane), blocked with blocking buffer at room temperature for 1 hour, and subjected to antibody incubation and development procedures according to the antibody manufacturer's instructions (Cell Signaling Technology).
(§4) Half-Maximal Degradation Concentration value (the drug concentration required for degrading proteins by 50%, abbreviated as DC50) reads method: comparing the grayscale values of Western blot bands from drug-treated samples with those from blank DMSO-treated controls, and identifying the drug concentration range at which the grayscale value is half that of the DMSO-treated control bands.
(§5) DC50 values can be calculated using ImageJ software to measure grayscale values of Western blot bands from drug-treated samples. The concentration-response curve is fitted to estimate the drug concentration corresponding to half the grayscale value.
(§6) Target protein remaining (%) refers to the percentage of target protein remaining in cells after treatment with protein degrader compounds.
(§7) Calculation method for target protein remaining (%): Use ImageJ software to measure grayscale values of Western blot bands from drug (protein degrader)-treated samples. The grayscale value of drug-treated bands is divided by that of internal control protein bands, and the resulting quotient is normalized to obtain the relative percentage of remaining target protein after protein degrader treatment.
(§8) Target protein degradation rate (%)=1−target protein remaining (%).

Experiment [2] deals with T2, AR (Homo sapiens, UniProt P10275).
T2 construct: expression of target proteins in cells; endogenous in cells
T2 sequence (P10275 1-920): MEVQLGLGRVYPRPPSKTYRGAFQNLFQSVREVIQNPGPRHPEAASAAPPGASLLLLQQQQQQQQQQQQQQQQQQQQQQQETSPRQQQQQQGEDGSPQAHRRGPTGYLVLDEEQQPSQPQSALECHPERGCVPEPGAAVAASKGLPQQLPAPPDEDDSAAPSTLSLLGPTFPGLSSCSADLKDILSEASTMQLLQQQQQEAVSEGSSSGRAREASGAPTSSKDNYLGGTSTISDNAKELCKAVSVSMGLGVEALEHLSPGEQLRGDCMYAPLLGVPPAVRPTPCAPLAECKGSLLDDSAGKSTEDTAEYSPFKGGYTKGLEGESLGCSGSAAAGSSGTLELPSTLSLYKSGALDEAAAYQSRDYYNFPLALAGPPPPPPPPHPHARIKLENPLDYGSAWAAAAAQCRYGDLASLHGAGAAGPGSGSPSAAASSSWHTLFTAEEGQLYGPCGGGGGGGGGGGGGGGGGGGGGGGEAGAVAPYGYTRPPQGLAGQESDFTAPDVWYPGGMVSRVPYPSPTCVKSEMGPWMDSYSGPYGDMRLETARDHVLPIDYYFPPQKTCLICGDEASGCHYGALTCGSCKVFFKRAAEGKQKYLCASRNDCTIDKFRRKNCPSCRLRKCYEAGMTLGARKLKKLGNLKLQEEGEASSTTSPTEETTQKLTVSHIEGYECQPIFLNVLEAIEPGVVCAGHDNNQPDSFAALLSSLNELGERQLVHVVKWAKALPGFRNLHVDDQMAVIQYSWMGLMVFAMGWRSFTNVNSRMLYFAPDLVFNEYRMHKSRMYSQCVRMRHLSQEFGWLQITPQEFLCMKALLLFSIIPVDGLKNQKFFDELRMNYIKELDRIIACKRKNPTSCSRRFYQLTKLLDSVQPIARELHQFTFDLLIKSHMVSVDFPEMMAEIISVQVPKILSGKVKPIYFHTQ
The experiment in a line: Western blot degradation of AR. The settings on record: LnCap Cell; 24 hours. The method, then:
as §1, §2, §3, §4, §5, §6, §7, §8

Experiment [3] relates to Human T lymphocytic leukemia cell line (Jurkat). The experiment in a line: Inhibition of Jurkat cell proliferation (CellTiter luminescent viability). Conditions: Homo sapiens, Table IF3, AR inhibitor-based, 96 hours; for inhibition at 0.01 µM: 10 nM, read-out: Inhibition Rate at 10 nM (%); for inhibition at 0.5 µM: 500 nM, read-out: Inhibition Rate at 500 nM (%). How it is done:
The tumor cells used herein were cultured in a cell culture medium listed in table 3 at 37 °C in an incubator with 5% CO2. Prior to experimentation, all cell lines used were correctly identified by STR profiling, and tested negative for mycoplasma contamination using a mycoplasma detection kit through routine screenings.
The IC50 values of the compounds of the present disclosure (including the compounds in Table 1, Table 2, and Examples 1-468) were determined using the CellTiter-Meiluncell Luminescent Cell Viability Assay Kit from Dalian Meilun Biotech Co., Ltd. The detailed procedure is as follows: Tumor cells were seeded in 96-well cell culture plates at the densities specified in Table 4. On the following day, the test compounds of the present disclosure were subjected to serial dilution. The dilution can be performed according to one of the following two methods: • (1) The first dilution method: The test compounds of the present disclosure (including the compounds in Table 1, Table 2, and Examples 1-468) were subjected to 5-fold serial dilutions starting from a highest concentration of 2000 μM, resulting in a total of 9 concentrations from high to low (2000, 400, 80, 16, 3.2, 0.64, 0.128, 0.0256, 0.00512 μM). Subsequently, 0.5 μL of the test compound dilution was transferred into the 96-well plate containing the cells, with each well containing 100 μL of cell culture medium. […] Into the 96-well plate, the diluted test compounds and corresponding detection reagents were added, resulting in final test compound concentrations of 500 nM and 10 nM, respectively. The experimental procedure is described below using the diluted 2 μM test compound as an example.
0.5 μL of the aforementioned diluted compound of the present disclosure (including the compounds in Table 1, Table 2, and Examples 1-468) was added to the seeded cells in 100 μL of medium, yielding a final test compound concentration of 10 nM. After the cells were treated with the compounds of the present disclosure for a specified period, the cell viability assay reagent was added to the culture medium according to the kit's instructions to determine cell viability. […] All controls were treated using the same procedure as the compounds of the present disclosure. The growth inhibition curves for the compounds of the present disclosure were plotted using Prism GraphPad software, and the IC50 values were calculated therefrom.

Experiment [4] deals with Human acute lymphocytic leukemia T lymphocytes cell line (CCRF-CEM). In words: Inhibition of CCRF-CEM cell proliferation (CellTiter luminescent viability). Conditions: Homo sapiens, 96 h, Table IF2, AR inhibitor-based; for inhibition at 0.01 µM: 10 nM, read-out: Inhibition Rate at 10 nM (%); for inhibition at 0.5 µM: 500 nM, read-out: Inhibition Rate at 500 nM (%).
In experiment [5] the test system is Human diffuse large B-cell lymphoma cell line (TMD8). The experiment in a line: Inhibition of TMD8 cell proliferation (CellTiter luminescent viability). The settings on record: Homo sapiens, TMD8, 96 h, Table IF1, AR inhibitor-based; for inhibition at 0.01 µM: TMD8, 10 nM, read-out: Inhibition Rate at 10 nM (%); for inhibition at 0.5 µM: TMD8, 500 nM, read-out: Inhibition Rate at 500 nM (%).

T1 sequence (Q9UM73 19-1620): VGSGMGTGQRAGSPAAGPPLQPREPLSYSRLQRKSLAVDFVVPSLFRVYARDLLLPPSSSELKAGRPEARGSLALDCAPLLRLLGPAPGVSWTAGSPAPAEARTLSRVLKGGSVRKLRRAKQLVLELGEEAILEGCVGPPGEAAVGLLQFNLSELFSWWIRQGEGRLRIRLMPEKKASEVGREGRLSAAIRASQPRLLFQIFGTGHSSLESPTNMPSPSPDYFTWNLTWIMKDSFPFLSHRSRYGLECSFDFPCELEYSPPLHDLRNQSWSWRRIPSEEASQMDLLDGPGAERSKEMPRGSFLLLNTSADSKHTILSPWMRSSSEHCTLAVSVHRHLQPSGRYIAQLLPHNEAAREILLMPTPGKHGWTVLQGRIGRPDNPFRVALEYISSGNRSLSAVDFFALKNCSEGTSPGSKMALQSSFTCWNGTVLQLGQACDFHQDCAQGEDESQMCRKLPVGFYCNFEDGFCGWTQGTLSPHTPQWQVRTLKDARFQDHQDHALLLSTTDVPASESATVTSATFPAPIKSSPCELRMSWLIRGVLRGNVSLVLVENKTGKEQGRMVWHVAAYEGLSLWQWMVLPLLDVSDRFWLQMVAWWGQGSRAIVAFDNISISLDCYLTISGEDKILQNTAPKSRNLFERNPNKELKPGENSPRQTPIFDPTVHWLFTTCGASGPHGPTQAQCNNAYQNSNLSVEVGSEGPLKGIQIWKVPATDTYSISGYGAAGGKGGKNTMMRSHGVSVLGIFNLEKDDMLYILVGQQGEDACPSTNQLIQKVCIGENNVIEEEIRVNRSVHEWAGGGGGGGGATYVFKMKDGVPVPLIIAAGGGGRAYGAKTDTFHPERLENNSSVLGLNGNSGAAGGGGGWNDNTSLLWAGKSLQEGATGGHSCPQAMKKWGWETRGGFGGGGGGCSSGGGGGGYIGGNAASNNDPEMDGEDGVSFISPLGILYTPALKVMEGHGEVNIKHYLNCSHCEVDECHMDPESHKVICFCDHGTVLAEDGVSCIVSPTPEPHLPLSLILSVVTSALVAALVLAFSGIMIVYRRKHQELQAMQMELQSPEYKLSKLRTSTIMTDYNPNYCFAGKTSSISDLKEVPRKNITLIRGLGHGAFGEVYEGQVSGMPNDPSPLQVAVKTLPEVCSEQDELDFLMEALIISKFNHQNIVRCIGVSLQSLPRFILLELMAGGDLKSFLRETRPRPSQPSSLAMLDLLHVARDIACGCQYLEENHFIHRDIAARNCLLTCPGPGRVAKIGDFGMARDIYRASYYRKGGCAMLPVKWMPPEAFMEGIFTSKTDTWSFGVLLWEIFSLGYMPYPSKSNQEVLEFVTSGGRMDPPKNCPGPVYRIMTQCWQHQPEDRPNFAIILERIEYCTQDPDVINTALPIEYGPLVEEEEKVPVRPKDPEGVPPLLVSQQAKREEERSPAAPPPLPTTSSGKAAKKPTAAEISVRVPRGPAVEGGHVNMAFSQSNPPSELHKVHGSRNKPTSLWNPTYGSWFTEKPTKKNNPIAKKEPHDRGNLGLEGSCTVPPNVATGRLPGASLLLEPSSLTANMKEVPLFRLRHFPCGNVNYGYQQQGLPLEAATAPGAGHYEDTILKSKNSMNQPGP
T1 sequence (Q96SW2 whole entry partner, the tested form may be a part): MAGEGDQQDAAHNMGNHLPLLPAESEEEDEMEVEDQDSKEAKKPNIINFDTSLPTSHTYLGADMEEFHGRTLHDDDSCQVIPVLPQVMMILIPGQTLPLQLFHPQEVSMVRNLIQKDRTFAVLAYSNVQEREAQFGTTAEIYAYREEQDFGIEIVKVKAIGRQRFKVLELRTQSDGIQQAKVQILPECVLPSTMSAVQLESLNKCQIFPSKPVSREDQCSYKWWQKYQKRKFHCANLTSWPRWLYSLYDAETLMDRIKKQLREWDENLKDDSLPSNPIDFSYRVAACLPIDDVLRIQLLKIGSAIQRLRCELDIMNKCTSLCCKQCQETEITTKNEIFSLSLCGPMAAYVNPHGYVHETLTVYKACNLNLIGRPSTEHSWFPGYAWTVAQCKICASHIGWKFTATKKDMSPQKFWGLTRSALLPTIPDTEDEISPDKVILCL

With `COc1cc(N2CCC(N(C)Cc3ccc4c(c3)C(=O)N(N3CCC(=O)NC3=O)C4=O)CC2)ccc1Nc1ncc(Cl)c(Nc2ccccc2P(C)(C)=O)n1` [GT-04660, 5-(((1-(4-((5-chloro-4-((2-(dimethylphosphoryl)phenyl)amino)pyrimidin-2-yl)amino)-3-methoxyphenyl)piperidin-4-yl)(methyl)amino)methyl)-2-(2,4-dioxotetrahydropyrimidin-1(2H)-yl)isoindoline-1,3-dione], in experiment [1], the “Degradation of substrate protein ALK (substrate protein remaining %)” value was “A (0%≤substrate protein remaining %≤80%)”.

In the case of `CC1(C)[C@H](NC(=O)c2ccc(N3CCC(CN4CCN(c5cc(F)c6c(c5)C(=O)N(N5CCC(=O)NC5=O)C6=O)CC4)CC3)nc2)C(C)(C)[C@H]1Oc1ccc(C#N)c(Cl)c1` [GT-05346, N-((1r,3r)-3-(3-chloro-4-cyanophenoxy)-2,2,4,4-tetramethylcyclobutyl)-6-(4-((4-(2-(2,4-dioxotetrahydropyrimidin-1(2H)-yl)-7-fluoro-1,3-dioxoisoindolin-5-yl)piperazin-1-yl)methyl)piperidin-1-yl)nicotinamide], the “Degradation of substrate protein AR (substrate protein remaining %)” value in experiment [2] is listed as “A (0%≤substrate protein remaining %≤80%)”. Also, the inhibition at 0.01 µM was in the range of 0 to 5% in experiment [3], 15 to 20% in experiment [4] and 15 to 20% in experiment [5]. Also, the inhibition at 0.5 µM in experiment [3] fell in the range of 20 to 30%; in experiment [4], 20 to 30%; in experiment [5] it was 35 to 40%.

On to `N#Cc1ccc(O[C@H]2CC[C@H](NC(=O)c3ccc(N4CCC(CN5C6CC5CN(c5ccc7c(c5)C(=O)N(N5CCC(=O)NC5=O)C7=O)C6)CC4)nn3)CC2)cc1Cl` [GT-05821, N-((1r,4r)-4-(3-chloro-4-cyanophenoxy)cyclohexyl)-6-(4-((3-(2-(2,4-dioxotetrahydropyrimidin-1(2H)-yl)-1,3-dioxoisoindolin-5-yl)-3,6-diazabicyclo[3.1.1]heptan-6-yl)methyl)piperidin-1-yl)pyridazine-3-carboxamide], for which the “Degradation of substrate protein AR (substrate protein remaining %)” value in experiment [2] is listed as “A (0%≤substrate protein remaining %≤80%)”. The inhibition at 0.01 µM in experiment [3] lay in the range of 10 to 15%; in experiment [4], 15 to 20%; in experiment [5], 15 to 20%. In addition, the results for the inhibition at 0.5 µM in experiment [3], in experiment [4] and in experiment [5] were 20 to 30%, 30 to 40% and 40 to 60%, respectively.

For the compound `CC1(C)[C@H](NC(=O)c2ccc(N3CCC(CN4C5CC4CN(c4ccc6c(c4)C(=O)N(N4CCC(=O)NC4=O)C6=O)C5)CC3)nc2)C(C)(C)[C@H]1Oc1ccc(C#N)c(Cl)c1` [GT-05823, N-((1r,3r)-3-(3-chloro-4-cyanophenoxy)-2,2,4,4-tetramethylcyclobutyl)-6-(4-((3-(2-(2,4-dioxotetrahydropyrimidin-1(2H)-yl)-1,3-dioxoisoindolin-5-yl)-3,6-diazabicyclo[3.1.1]heptan-6-yl)methyl)piperidin-1-yl)nicotinamide], the “Degradation of substrate protein AR (substrate protein remaining %)” value in experiment [2] is “A (0%≤substrate protein remaining %≤80%)”. Besides, the inhibition at 0.01 µM in experiment [3] was in the range of 5 to 10%; in experiment [4] it was 5 to 10%; in experiment [5] it was 10 to 15%. Moreover, the inhibition at 0.5 µM lay in the range of 20 to 30% in experiment [3], 20 to 30% in experiment [4] and 35 to 40% in experiment [5].

In the case of `N#Cc1ccc(O[C@H]2CC[C@H](NC(=O)c3ccc(N4CCC(CN5C6CCC5CN(c5ccc7c(c5)C(=O)N(N5CCC(=O)NC5=O)C7=O)C6)CC4)nn3)CC2)cc1Cl` [GT-05824, N-((1r,4r)-4-(3-chloro-4-cyanophenoxy)cyclohexyl)-6-(4-((3-(2-(2,4-dioxotetrahydropyrimidin-1(2H)-yl)-1,3-dioxoisoindolin-5-yl)-3,8-diazabicyclo[3.2.1]octan-8-yl)methyl)piperidin-1-yl)pyridazine-3-carboxamide], the “Degradation of substrate protein AR (substrate protein remaining %)” value in experiment [2] was “A (0%≤substrate protein remaining %≤80%)”. Further, the inhibition at 0.01 µM in experiment [3] lay in the range of 5 to 10%; in experiment [4], 10 to 15%; in experiment [5], 15 to 20%. In addition, the figures for the inhibition at 0.5 µM in experiment [3], in experiment [4] and in experiment [5] were 30 to 40%, 30 to 40% and 40 to 60%, respectively.

As for `CC1(C)[C@H](NC(=O)c2ccc(N3CCC(CN4C5CCC4CN(c4ccc6c(c4)C(=O)N(N4CCC(=O)NC4=O)C6=O)C5)CC3)nc2)C(C)(C)[C@H]1Oc1ccc(C#N)c(Cl)c1` [GT-05826, N-((1r,3r)-3-(3-chloro-4-cyanophenoxy)-2,2,4,4-tetramethylcyclobutyl)-6-(4-((3-(2-(2,4-dioxotetrahydropyrimidin-1(2H)-yl)-1,3-dioxoisoindolin-5-yl)-3,8-diazabicyclo[3.2.1]octan-8-yl)methyl)piperidin-1-yl)nicotinamide], the “Degradation of substrate protein AR (substrate protein remaining %)” value in experiment [2] is listed as “A (0%≤substrate protein remaining %≤80%)”. Also, the values for the inhibition at 0.01 µM in experiment [3], in experiment [4] and in experiment [5] were 20 to 30%, 20 to 30% and 25 to 30%, respectively. For the same compound, the inhibition at 0.5 µM in experiment [3], in experiment [4] and in experiment [5] was 40 to 60% in each case.
